Assay: gradient 5% acetonitrile 3 min, to 50% in 2 min, to 85% in 15 min, held 3 min, 100 µL/min
Settings: column: Zorbax Extend-C18 2.1 x 50 mm; eluents: water / acetonitrile, 0.1% formic acid
Method in brief: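 Standards, all pure, were combined into mixtures of ~100 molecules and run at 100 μL/min on a Zorbax Extend-C18 column (2.1 × 50 mm, 1.8 μm) with water and acetonitrile, each containing 0.1% formic acid. A coupled quadrupole time-of-flight mass spectrometer operated in positive and negative ionization mode. Retention time values come from computationally picked adduct peaks, each inspected manually.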

SMILES	RP-LC retention time [s]
O=C(Nc1cnc(-c2cccc(Cl)c2)nc1)c1cccs1	1070
O=C(Nc1ccc(C2(C(=O)NCc3cccc(Cl)c3)CCC2)cc1)C1CC1	891
CCC(=O)N1CCC2(CC1)CC(CC(=O)N(C)C)CCO2 (centres undefined)	598
CCc1ccc2oc(=O)cc(CN3CCN(c4ccccn4)CC3)c2c1	669
CCN1CCN(C(=O)CCc2cc(OC)c(OC)c(OC)c2)c2cccnc21	613
Cn1nccc1-c1cccc(-c2noc(-c3ccoc3)n2)c1	938
O=C(NCc1ccc(Cl)cc1)c1ccc2c(c1)N(CC(=O)N1CCCC1)C(=O)CO2	768
CCCCn1c(=O)c2ccccc2n(Cc2nc(-c3ccc(F)cc3)no2)c1=O	1170
O=C(Cn1cccc1-c1nc(-c2ccc3c(c2)OCO3)no1)Nc1ccccc1	1140
CSc1ccc(-c2nc3ccccn3c2Nc2ccc3c(c2)OCO3)cc1	711
CC1(c2ccccc2)CC(C)(C)N(C(=O)CN2CCOCC2)c2ccccc21 (centres undefined)	744
CCSc1nnc(-c2nn(C)c3c2CN(C(=O)c2c(F)cccc2F)CC3)n1C	746
Cc1ccccc1NS(=O)(=O)c1cc2[nH]c(=O)[nH]c2cc1C	679
CN1C(=O)c2cc(C(=O)NCc3ccc(Cl)cc3)nn2CC1(C)C(=O)NCc1ccccc1 (centres undefined)	832
COc1ccccc1-c1nc(-c2ccc3nnn(C(C)C)c3c2)no1	962
COc1ccc(NC(=O)CSc2nnc3c4cc(-c5ccc(C)c(C)c5)nn4ccn23)cc1Cl	997
COCCn1c(SCc2nc(-c3cccc(F)c3)no2)nc2cc3c(cc2c1=O)OCO3	1090
Cc1nnsc1C(=O)NCC(F)(F)F	649
COc1ccc(C(=O)Nc2nnc(SCc3ccccc3Cl)s2)cc1OC	954
Clc1ccc(-c2nc3ccc(Cl)cn3c2Nc2ccc3c(c2)OCO3)cc1	926

SMILES	RP-LC retention time [s]
Cc1ccc(C)c(NC(=O)c2cc3c(=O)n(CC(C)C)ccc3n2C)c1	884
CCc1ccc(CNC(=O)c2cn(-c3cc(-c4nc(C)no4)ccn3)cn2)cc1	805
Cc1ccc(Cl)cc1N1CCN(c2cc(C(=O)O)c3cc(NC(=O)C(C)C)ccc3n2)CC1	746
CCc1ccc(S(=O)(=O)Nc2cccc(-c3cn4c(C)cccc4n3)c2)cc1	667
Cc1oc(-c2[nH]ncc2C(=O)N(C)C)cc1S(=O)(=O)Nc1ccc(F)c(F)c1	890
O=C(Nc1nc2ccccc2s1)c1ccc(S(=O)(=O)N2CCc3ccccc32)cc1	1040
O=C(NCc1ccc2c(c1)OCO2)c1n[nH]nc1Nc1ccc(F)cc1	872
C/C=C1\NC(=O)[C@H]2CSSCC/C=C/[C@H](CC(=O)N[C@H](C(C)C)C(=O)N2)OC(=O)C(C(C)C)NC1=O (some centres undefined)	808
CC(C)C(=O)NCC(c1ccc(N(C)C)cc1)N1CCN(c2ccc(F)cc2)CC1 (centres undefined)	592
CCNC(=O)c1cnn(-c2ccc(-c3nc(C(C)C)no3)cn2)c1C	983
CCc1noc(NC(C)=O)c1-c1ccc(C)c(S(=O)(=O)NCc2cccs2)c1	783
COC[C@@H]1OCCN(Cc2ccc(C)c(C)c2)[C@H]1c1ccccc1	724
CN1C(=O)c2cc(S(=O)(=O)Nc3ccc(F)cc3F)ccc2Oc2cccnc21	887
CCOc1ccc(NC(=O)c2cnc3c(c2)c(=O)n(C)c(=O)n3-c2ccccc2)cc1	904
Cc1cc(N2CCN(C)CC2)n2nc(CN3CCN(c4cccc(Cl)c4)CC3)nc2n1	568
CCOC(=O)c1c(NCc2ccc(C)cc2)c2ccc(Cl)cc2[nH]c1=O	922
CC1=C(c2ccc(C)c(C)c2)S(=O)(=O)N=C1N1CCCN(C(=O)C(C)C)CC1	854
Cc1ccc(Cl)cc1NS(=O)(=O)c1cc(-c2cc(C(F)(F)F)on2)sc1C	1240
COCCNC(=O)CSc1cn(CC(=O)N2CC(C)OC(C)C2)c2ccccc12 (centres undefined)	709
COc1ccc(-c2nc3sc(C(=O)N4CCOCC4)c(C)n3c2NC(C)(C)C)cc1	763

SMILES	RP-LC retention time [s]
c1ccc(-c2csc(Nc3ncccn3)n2)nc1	594
O=C(Cn1cnc2c(-c3ccc(F)cc3)csc2c1=O)N1CCCC1	783
c1coc(-c2nc3ccccc3c3nnc(SCc4cn5ccccc5n4)n23)c1	867
Cc1cc(C)nc(N2CCN(C)CC2)n1	556
COc1ccc2c(c1)-c1nc(NC(=O)c3ccccc3Cl)sc1CC2	1110
Cc1nc(OCC(=O)Nc2ccc(Cl)c(C(F)(F)F)c2)c2ccccc2n1	892
Cc1ccc(CNC(=O)N(C)CC2CCOC2)cc1 (centres undefined)	575
Cc1ccc2c(Nc3cccc(C(C)C)c3)c(C(=O)N3CCSCC3)cnc2n1	688
Cc1ccc(C)c(NC(=O)C2CCN(S(C)(=O)=O)c3cc(Cl)ccc3O2)c1 (centres undefined)	935
COc1cccc(-c2noc(Cc3nnc(-c4cccc(F)c4)o3)n2)c1OC	934
CSc1ccc(-c2nc3cnccn3c2Nc2ccccc2)cc1	930
COC(=O)c1ccc(N2Cc3cc(Cl)ccc3OCC2=O)cc1	877
CCCN(C)c1nccn2c(=O)n(CC(=O)Nc3cccc(C)c3)nc12	687
COc1ccc2oc(-c3ccncc3)cc(=O)c2c1	701
Cc1ccc(NC(=O)Cc2nnc(-c3cnccn3)o2)c(C)c1	700
Cc1ccccc1Nc1c(-c2c(F)cccc2Cl)nc2c(C)cccn12	774
Cc1cc(C)cc(-n2ccn(Cc3nc(-c4ccc(Cl)cc4)no3)c(=O)c2=O)c1	960
CCCN1C(=O)COc2ccc(-c3csc(NC(=O)CCc4ccccc4)n3)cc21	1070

Now from value to molecule:

RP-LC retention time [s]	SMILES
779	Cc1ccnc(N2CCCC(C(=O)NCCc3ccccc3Cl)C2)n1 (centres undefined)
1270	O=S(=O)(c1ccc2c(c1)CCCC2)N1CCCC1c1nc(-c2ccccc2)no1 (centres undefined)
1420	CCOC(=O)N1CCN(c2cc(-c3nc(-c4cccc(F)c4)no3)c3ccccc3n2)CC1
764	Cc1c(CC(=O)N2CCC(C(N)=O)CC2)c(=O)oc2cc3oc4c(c3cc12)CCCC4
722	COc1ccc(C)cc1NC(=O)N1CCCC(Cn2c(C3CC3)nc3cccnc32)C1 (centres undefined)
790	CC1=C(c2ccc(F)cc2)S(=O)(=O)N=C1N1CCCN(C(=O)C2CCC2)CC1
689	O=C(NCc1ccccc1F)C1CCN(c2cnc3nccnc3c2)CC1
808	COc1ccc(C(=O)N2CCC(COc3ccc(C(=O)NC4CC4)cc3)CC2)c(C)c1
744	COCc1cc(=O)n(Cc2ccccc2C#N)c(N2CCCC2)n1
727	CCCc1nnc(NC(=O)C2CCN(C(=O)c3cccc(F)c3)CC2)s1
861	Cc1ccc(C(=O)N2CCCC(c3nnc(-c4ccccc4)o3)C2)s1 (centres undefined)
617	Cc1ccc(-n2c(N3CCCC(C(=O)NCCN4CCCCC4)C3)nc3ccsc3c2=O)cc1 (centres undefined)
897	COc1ccccc1-c1nnc(-c2ccc(Cl)c(S(=O)(=O)N3CCOCC3)c2)o1
807	Cc1nn(C)c(=O)c2cc(S(=O)(=O)NCc3ccccc3Cl)cn12
822	CCn1cnc(S(=O)(=O)N2CCC(C(=O)Nc3ccc(C)c(Cl)c3)CC2)c1
567	Cc1noc2ncnc(N3CCC(C(=O)NCCN(C)C)CC3)c12

RP-LC retention time [s]	SMILES
867	COc1ccccc1-c1nnc(-c2ccc(C)c(S(=O)(=O)N3CCOCC3)c2)o1
935	CCn1cc(C(=O)NCCc2ccc(Cl)cc2)c(S(=O)(=O)N2CCSCC2)n1
661	CNC(=O)C1CCCN(c2nc3ncn(CC(=O)Nc4c(C)cccc4C)c(=O)c3s2)C1 (centres undefined)
797	CC(C)CN1C(=O)c2cccn2CC1C(=O)NC1CCCCC1 (centres undefined)
746	Cc1ccc(Cl)cc1NC(=O)N1C[C@@H](F)C[C@H]1C(=O)N1CCCCC1
743	COc1ccccc1OCC(=O)Nc1ccc2c(c1)CN(C(=O)C1CC1)CC2
1170	O=S(=O)(c1ccc(-c2noc(COc3ccc(Cl)cc3)n2)cc1)N1CCCC1
691	CCN1CCN(S(=O)(=O)c2ccc(-c3cc(C(F)(F)F)on3)o2)CC1
1050	O=S(=O)(Oc1ccc(Cl)cc1)c1cccc2cccnc12
767	Cc1cc(Cl)ccc1OCC(=O)N1CCCCC1c1nncn1C (centres undefined)
830	Cc1ccc(-c2nnc(CC(=O)NC3CCCCC3)o2)cc1
791	O=C(COc1ccccc1F)Nc1ccc(Cl)c(N2CCCS2(=O)=O)c1
645	COC1CCOC2(CCN(C(=O)c3ccco3)CC2)C1 (centres undefined)
912	O=S(=O)(c1ccccc1Cl)N1CCC(OCc2noc(C3CCCO3)n2)CC1 (centres undefined)
705	CS(=O)(=O)N[C@H]1C[C@@H]2C[C@H]1CN2C(=O)c1ccccc1C(F)(F)F

Reference: the METLIN SMRT retention time set (Domingo-Almenara et al. 2019)
